Measurements taken from publication PMC11314561, “Design and Synthesis of Novel Aminoindazole-pyrrolo[2,3-b]pyridine Inhibitors of IKKα That Selectively Perturb Cellular Non-Canonical NF-κB Signalling” (Molecules, 2024).
Converted amounts (≈) assume the structure as drawn. Read-outs that look alike come from different tables or passages of the source.

Assays:
Turbidimetric solubility = format: physicochemical; details: pH 7.4, aqueous buffer, kinetic from dmso stock, 0.01 M phosphate-buffered saline pH7.4
Procedure: Pharmacokinetic studies were contracted to Sygnature Discovery Limited. Turbidimetric Solubility was determined by diluting compound solutions (1 μM, 3 μM, 10 μM, 30 μM, 100 μM) prepared in DMSO into 0.01 M phosphate-buffered saline pH7.4. Turbidimetry was used as the endpoint by measuring absorbance at 620 nm.

FAK(h) = FAK(h) (Homo sapiens, UniProt Q05397); test: kinase panel; format: biochemical
Outline: (§1)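 Percentage inhibition was recorded for each compound against a broad kinase panel of 231 enzymes. Because of its close structural resemblance to another analogue, one compound was screened against 98 chosen kinases.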

CK1γ1(h) = CK1γ1(h) (Homo sapiens, UniProt Q9HCP0); test: kinase panel; format: biochemical
Outline: as §1

TSSK1(h) = TSSK1(h) (Homo sapiens, UniProt Q9BXA7); test: kinase panel; format: biochemical
Outline: as §1

IR(h), activated = IR(h), activated (Homo sapiens, UniProt P06213); test: kinase panel; format: biochemical
Outline: as §1

cKit(h) = cKit(h) (Homo sapiens, UniProt P10721); test: kinase panel; format: biochemical
Outline: as §1

PDGFRα(h) = PDGFRα(h) (Homo sapiens, UniProt P16234); test: kinase panel; format: biochemical
Outline: as §1

MST3(h) = MST3(h) (Homo sapiens, UniProt Q9Y6E0); test: kinase panel; format: biochemical
Outline: as §1

In vivo murine PK = details: mouse, plasma, CD1 mice, 10 mg/kg, mean; for half-life: read-out: Terminal t1/2 (converted)
Procedure: Ta b l e S2. in vivo murine PK parameters for 6g [SU1349]. In vivo PK studies were performed by Shanghai ChemPartner Co. Ltd. (Shanghai, 201203 CN) Each route of administration involved three CD1 mice all receiving a single dose, with mean values reported. The IV/IP dosing solution was prepared in 10% DMAC+ 10% Solutol HS15+ 80% (15% of HP-β-CD) in water. BQL: Below quantiϐiable limit of 1 ng/mL for SU1349 in CD1 mouse plasma. All BQL data was excluded from mean value concentration and graphing. Plasma concentrations were determined on an LCMSMS-010 (API4000, triple quadruple) instrument using Positive Ion, ESI MS conditions, with deaxamethasone as an internal standard. Intravenous time points were taken at 5 min, 15 min, 30 min, 1, 2, 4, 8, and 24 hours and intraperitoneal time points were taken at 15 min, 30 min, 1, 2, 4, 6, 8, […]
Administration Dose Mean PK parameters
Clearance Terminal Vss Cmax Tmax F

[1] = tested on: p52/RelB nuclear translocation in PC-3M cells; test: LTα1β2-stimulated p52/RelB nuclear translocation, Western blotting of crude nuclear extracts; format: cell-based; details: Homo sapiens, LTα1β2 4 h
Procedure: Associated with the IKKα-mediated activation of the non-canonical NF-κB pathway is the downstream liberation and the nuclear translocation of p52/RelB-containing NF-κB complexes. The extent of the nuclear translocation of these proteins was also assessed by Western blotting of crude nuclear extracts prepared from PC-3M cells. […] Related to the markers of TNFα-stimulated canonical NF-κB signalling, 6g [SU1349] had no impact on any of TNFα-stimulated IκBα degradation, phosphorylation of p65 (Ser536), or p105 (Ser932) phosphorylation in these cells (Figure 15C).
For examination of potential effects of compound on non-canonical NF-κB signalling, cells were exposed to vehicle (DMSO; 0.03–0.05% (v/v)) or increasing concentrations of compounds (0.01–30 µM) for 1 h prior to treatment with FCS (10% (v/v); for U2OS cells) or LTα1β2 (20 ng/mL; for PC-3M cells) for 4 h. The status of p-p100 (Ser 866/870) in whole-cell extracts prepared from 12-well plates was assessed by Western blotting, as described in McKenzie et al.. […] Thereafter, p52 and RelB status in crude nuclear extracts normalised for protein amounts were assessed by Western blotting.
Each figure/panel of Western blotting data represents one of at least three separate experiments. […] Data were normalised to fold expression/inhibition relative to ‘agonist plus vehicle’ treatment and expressed as mean ± s.e.m. […]

Sequence of cKit(h) (P10721 26-976): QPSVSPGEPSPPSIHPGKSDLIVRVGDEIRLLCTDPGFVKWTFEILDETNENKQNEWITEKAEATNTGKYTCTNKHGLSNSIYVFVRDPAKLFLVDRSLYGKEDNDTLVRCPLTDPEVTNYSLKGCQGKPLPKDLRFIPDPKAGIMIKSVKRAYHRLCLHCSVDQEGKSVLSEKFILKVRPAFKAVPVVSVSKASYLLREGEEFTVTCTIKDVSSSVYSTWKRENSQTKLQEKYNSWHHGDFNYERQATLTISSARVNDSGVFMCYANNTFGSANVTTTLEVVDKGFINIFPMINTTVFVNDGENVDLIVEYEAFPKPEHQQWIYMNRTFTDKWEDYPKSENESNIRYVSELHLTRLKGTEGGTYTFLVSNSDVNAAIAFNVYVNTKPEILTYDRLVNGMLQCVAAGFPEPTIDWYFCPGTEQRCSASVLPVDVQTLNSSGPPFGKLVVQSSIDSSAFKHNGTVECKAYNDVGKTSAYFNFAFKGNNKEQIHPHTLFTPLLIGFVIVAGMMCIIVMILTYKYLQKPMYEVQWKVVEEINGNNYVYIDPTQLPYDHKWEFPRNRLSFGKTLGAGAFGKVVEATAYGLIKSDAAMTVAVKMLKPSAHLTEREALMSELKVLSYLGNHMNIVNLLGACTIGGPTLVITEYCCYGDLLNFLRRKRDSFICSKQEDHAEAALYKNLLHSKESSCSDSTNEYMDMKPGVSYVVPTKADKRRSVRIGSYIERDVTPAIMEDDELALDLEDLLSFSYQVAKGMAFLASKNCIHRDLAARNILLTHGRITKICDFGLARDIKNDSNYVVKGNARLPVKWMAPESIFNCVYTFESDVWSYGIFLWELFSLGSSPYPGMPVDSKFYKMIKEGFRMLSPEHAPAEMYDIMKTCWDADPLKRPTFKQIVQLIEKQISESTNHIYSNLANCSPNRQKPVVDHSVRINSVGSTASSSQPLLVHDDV
Sequence of MST3(h) (Q9Y6E0 whole entry): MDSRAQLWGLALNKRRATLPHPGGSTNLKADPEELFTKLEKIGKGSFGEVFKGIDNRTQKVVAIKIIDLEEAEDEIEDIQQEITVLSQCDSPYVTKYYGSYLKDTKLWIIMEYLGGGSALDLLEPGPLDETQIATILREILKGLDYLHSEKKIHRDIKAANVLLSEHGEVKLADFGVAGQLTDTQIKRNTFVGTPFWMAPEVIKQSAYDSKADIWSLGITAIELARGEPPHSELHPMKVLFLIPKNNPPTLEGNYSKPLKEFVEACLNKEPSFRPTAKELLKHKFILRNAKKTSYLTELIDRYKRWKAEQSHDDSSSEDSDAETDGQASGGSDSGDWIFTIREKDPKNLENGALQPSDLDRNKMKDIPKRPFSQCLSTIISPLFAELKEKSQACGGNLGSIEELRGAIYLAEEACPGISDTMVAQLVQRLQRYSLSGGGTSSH
Sequence of CK1γ1(h) (Q9HCP0 whole entry): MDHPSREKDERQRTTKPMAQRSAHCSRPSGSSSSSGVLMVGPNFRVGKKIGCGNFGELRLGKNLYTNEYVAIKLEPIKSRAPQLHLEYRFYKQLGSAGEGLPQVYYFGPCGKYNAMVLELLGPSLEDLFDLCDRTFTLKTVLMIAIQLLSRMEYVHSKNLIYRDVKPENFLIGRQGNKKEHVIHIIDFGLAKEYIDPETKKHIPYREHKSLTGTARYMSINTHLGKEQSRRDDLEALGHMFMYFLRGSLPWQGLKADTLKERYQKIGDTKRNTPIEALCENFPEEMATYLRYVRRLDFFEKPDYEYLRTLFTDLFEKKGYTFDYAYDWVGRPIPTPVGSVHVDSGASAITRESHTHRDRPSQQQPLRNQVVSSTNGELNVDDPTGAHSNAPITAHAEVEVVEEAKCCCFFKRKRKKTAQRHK
Sequence of PDGFRα(h) (P16234 24-1089): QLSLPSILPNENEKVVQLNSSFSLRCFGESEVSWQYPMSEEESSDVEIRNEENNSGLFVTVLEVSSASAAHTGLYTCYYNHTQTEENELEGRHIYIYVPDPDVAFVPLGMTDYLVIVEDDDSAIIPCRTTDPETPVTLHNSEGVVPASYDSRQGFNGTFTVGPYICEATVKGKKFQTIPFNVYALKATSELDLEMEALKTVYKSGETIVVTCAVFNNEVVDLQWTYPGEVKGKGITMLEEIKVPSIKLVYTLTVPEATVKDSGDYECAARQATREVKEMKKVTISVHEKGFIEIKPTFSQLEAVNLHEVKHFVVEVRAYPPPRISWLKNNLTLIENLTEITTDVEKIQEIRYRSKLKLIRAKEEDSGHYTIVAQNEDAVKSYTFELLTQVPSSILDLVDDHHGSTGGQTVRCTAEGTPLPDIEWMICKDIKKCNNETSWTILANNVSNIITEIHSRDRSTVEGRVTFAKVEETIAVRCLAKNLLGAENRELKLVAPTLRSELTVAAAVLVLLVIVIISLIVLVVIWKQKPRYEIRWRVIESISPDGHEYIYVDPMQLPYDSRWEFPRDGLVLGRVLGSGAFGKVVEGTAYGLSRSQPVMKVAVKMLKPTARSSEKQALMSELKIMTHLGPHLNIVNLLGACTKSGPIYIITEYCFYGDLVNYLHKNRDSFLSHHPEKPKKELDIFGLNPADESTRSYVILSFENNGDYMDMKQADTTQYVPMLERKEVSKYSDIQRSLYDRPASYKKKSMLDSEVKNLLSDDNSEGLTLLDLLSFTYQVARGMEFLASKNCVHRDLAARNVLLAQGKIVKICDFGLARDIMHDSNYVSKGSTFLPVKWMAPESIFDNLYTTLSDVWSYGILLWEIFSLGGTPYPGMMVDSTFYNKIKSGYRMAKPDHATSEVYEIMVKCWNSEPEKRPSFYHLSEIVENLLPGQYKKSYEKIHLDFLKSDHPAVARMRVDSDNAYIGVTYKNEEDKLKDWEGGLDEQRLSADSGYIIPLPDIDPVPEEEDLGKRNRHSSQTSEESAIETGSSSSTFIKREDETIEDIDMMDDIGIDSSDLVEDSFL
Sequence of FAK(h) (Q05397 whole entry): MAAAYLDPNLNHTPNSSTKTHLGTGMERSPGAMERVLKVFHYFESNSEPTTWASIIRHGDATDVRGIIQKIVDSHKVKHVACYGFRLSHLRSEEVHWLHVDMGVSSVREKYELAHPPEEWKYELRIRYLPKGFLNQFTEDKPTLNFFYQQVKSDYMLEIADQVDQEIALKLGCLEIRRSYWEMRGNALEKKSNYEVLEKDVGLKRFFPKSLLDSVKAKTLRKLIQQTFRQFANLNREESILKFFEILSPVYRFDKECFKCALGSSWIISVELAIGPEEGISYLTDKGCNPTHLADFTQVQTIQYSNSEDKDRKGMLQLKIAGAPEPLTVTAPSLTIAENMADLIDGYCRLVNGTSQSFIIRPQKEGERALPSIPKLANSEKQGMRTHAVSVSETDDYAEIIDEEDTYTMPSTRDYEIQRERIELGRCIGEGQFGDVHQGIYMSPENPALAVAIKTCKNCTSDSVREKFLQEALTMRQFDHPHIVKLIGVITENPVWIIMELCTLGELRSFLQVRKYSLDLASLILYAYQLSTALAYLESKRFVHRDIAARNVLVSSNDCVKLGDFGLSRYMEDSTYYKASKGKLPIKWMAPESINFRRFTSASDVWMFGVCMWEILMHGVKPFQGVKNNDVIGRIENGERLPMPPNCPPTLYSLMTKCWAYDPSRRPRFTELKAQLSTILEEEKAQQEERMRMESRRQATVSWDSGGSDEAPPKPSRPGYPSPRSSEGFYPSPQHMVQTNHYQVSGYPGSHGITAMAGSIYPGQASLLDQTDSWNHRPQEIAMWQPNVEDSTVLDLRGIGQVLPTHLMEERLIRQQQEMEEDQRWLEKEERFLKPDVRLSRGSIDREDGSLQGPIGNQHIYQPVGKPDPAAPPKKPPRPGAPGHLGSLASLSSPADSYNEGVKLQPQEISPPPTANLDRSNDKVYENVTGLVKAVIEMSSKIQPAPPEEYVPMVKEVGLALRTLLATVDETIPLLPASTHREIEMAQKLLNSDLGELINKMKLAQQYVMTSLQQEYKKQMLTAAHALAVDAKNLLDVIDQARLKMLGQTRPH
Sequence of TSSK1(h) (Q9BXA7 whole entry): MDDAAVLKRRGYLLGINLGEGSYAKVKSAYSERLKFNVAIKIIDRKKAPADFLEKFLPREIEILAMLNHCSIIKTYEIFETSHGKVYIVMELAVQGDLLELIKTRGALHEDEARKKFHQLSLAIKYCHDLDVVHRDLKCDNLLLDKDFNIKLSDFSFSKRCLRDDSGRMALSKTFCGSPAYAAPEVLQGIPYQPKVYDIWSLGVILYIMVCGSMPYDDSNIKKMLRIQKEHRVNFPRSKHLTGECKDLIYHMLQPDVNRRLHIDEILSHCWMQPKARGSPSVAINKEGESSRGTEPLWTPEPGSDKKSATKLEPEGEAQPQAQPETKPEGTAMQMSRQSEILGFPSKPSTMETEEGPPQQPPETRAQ

Row | SMILES | solubility (Turbidimetric solubility) [µM] | inhibition at 1 µM (FAK(h)) [%] | inhibition at 1 µM (CK1γ1(h)) [%] | inhibition at 1 µM (TSSK1(h)) [%] | inhibition at 1 µM (IR(h), activated) [%] | inhibition at 1 µM (cKit(h)) [%] | inhibition at 1 µM (PDGFRα(h)) [%] | inhibition at 1 µM (MST3(h)) [%] | Cmax (In vivo murine PK; ip, I.P.) [ng/mL] | Tmax (In vivo murine PK; ip, I.P.) [min] | bioavailability (In vivo murine PK; ip, I.P.) [%] | half-life (In vivo murine PK; ip, I.P.) [min] | clearance (In vivo murine PK; iv, I.V.) [mL/min/kg] | half-life (In vivo murine PK; iv, I.V.) [min] | Vd (In vivo murine PK; iv, I.V., read-out: Vss) [L/kg] | IC50 [1] [nM]
1 | Nc1n[nH]c2ccc(-c3ccnc4[nH]c(-c5cccc(OCc6ccccc6)c5)cc34)cc12 [Compound 5r [SU1261]] | < 1 | 8 | 10 | 14 | 23 | 9 | -12 | -3 |  |  |  |  |  |  |  | 
2 | Nc1n[nH]c2ccc(-c3ccnc4[nH]c(-c5ccnc(OCc6ccccc6)c5)cc34)cc12 [Compound 6g [SU1349]] | 20 (≈ 8.65 µg/mL) |  |  |  |  |  |  |  | 199 | 26.4 | 9.3 | 181 | 16.7 | 251 | 0.39 | 150
3 | Nc1n[nH]c2ccc(-c3ccnc4[nH]c(-c5ccccc5)cc34)cc12 [Compound 4] |  | 35 | 20 | 34 | 46 | 51 | 8 | 6 |  |  |  |  |  |  |  | 
